Common to all, as to test: stopped-flow CO2 hydration assay
Assay type in all cases: biochemical

The target of experiment [1] is T1, hCA IX (Homo sapiens, UniProt Q16790).
T1 construct: gene CA9; recombinant, tumor-associated transmembrane isoform
In outline: (§1)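 Recombinant human carbonic anhydrase isozymes were tested for inhibition by stopped-flow tracking of enzyme-catalysed CO2 hydration. Over 5–10 s, reactions containing 5–12 nM enzyme, 0.2 mM Phenol Red read at 557 nm, 10 mM Hepes (pH 7.4), 10 mM NaClO4 and CO2-saturated water at 25 °C as substrate were followed, after inhibitor and enzyme had been preincubated for 10 min at room temperature. Inhibitor stocks of 10 mM in DMSO-water 1:1 were diluted in assay buffer down to 0.01 nM, giving at least seven concentrations. Inhibition constants (Ki) were obtained by non-linear least-squares fitting with the Cheng–Prusoff equation and represent means of at least three determinations.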

Experiment [2] deals with T2, hCA XII (Homo sapiens, UniProt O43570).
T2 construct: gene CA12; recombinant, tumor-associated transmembrane isoform
T2 sequence (O43570 30-289 limits assumed): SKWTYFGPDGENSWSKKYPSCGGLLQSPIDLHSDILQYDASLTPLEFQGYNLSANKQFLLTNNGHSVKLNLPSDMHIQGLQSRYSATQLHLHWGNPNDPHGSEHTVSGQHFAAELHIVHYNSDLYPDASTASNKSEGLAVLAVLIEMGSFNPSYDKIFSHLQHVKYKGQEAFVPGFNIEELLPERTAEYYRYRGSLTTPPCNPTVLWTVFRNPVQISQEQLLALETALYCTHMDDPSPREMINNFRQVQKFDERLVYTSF
In outline:
as §1

In experiment [3] the target is T3, hCA II (Homo sapiens, UniProt P00918).
T3 construct: gene CA2; recombinant, cytosolic isoform
The method, boiled down: as §1

Experiment [4] deals with T4, hCA I (Homo sapiens, UniProt P00915).
T4 construct: gene CA1; recombinant, cytosolic isoform
T4 sequence (P00915 2-261): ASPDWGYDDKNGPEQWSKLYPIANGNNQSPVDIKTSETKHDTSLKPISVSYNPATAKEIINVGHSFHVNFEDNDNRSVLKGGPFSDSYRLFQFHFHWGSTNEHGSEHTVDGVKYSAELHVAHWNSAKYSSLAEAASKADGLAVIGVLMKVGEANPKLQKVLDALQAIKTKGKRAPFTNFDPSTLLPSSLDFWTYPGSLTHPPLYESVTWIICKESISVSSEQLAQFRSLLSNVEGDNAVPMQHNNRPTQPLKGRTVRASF
In outline: as §1

Structures are written as SMILES.

`NS(=O)(=O)c1ccc(NC(=O)CN2C(=O)/C(=C\c3ccccc3)SC2=S)cc1` [7a, (E)-2-(5-Benzylidene-4-oxo-2-thioxothiazolidin-3-yl)-N-(4-sulfamoylphenyl)-acetamide]: the Ki in experiment [1] came to 0.0087 µM; in experiment [2] it was 0.0325 µM; in experiment [3], 0.0692 µM; in experiment [4], 0.185 µM.

Turning to `NS(=O)(=O)c1ccc(NC(=O)CN2C(=O)/C(=C\c3ccc(Cl)cc3)SC2=S)cc1` [7b, (E)-2-(5-(4-Chlorobenzylidene)-4-oxo-2-thioxothiazolidin-3-yl)-N-(4-sulfamoylphenyl)acetamide], the inhibitory constant (Ki) in experiment [1] was 0.0357 µM; in experiment [2] it was 0.0091 µM; in experiment [3], 0.0516 µM; in experiment [4] it was 0.349 µM.

On to `NS(=O)(=O)c1ccc(NC(=O)CN2C(=O)/C(=C\c3ccc(OC(F)(F)F)cc3)SC2=S)cc1` [7c, (E)-2-(4-Oxo-2-thioxo-5-(4-(trifluoromethoxy)benzylidene)thiazolidin-3-yl)-N-(4-sulfamoylphenyl)acetamide], for which the inhibition constant (Ki) in experiment [1] is 0.0097 µM; in experiment [2], 0.158 µM; in experiment [3] it was 0.954 µM; in experiment [4], 2.41 µM.

For the compound `NS(=O)(=O)c1ccc(NC(=O)CN2C(=O)/C(=C\c3ccccc3F)SC2=S)cc1` [7d, (E)-2-(5-(2-Fluorobenzylidene)-4-oxo-2-thioxothiazolidin-3-yl)-N-(4-sulfamoylphenyl)acetamide], the Ki in experiment [1] came to 0.0143 µM; in experiment [2], 0.0654 µM; in experiment [3], 0.14 µM; in experiment [4] it was 0.224 µM.

For the compound `NS(=O)(=O)c1ccc(NC(=O)CN2C(=O)/C(=C\c3ccc(C(F)(F)F)cc3)SC2=S)cc1` [7e, (E)-2-(4-Oxo-2-thioxo-5-(4-(trifluoromethyl)benzylidene)thiazolidin-3-yl)-N-(4-sulfamoylphenyl)acetamide], the Ki in experiment [1] was found to be 0.008 µM; in experiment [2], 0.0096 µM; in experiment [3] it was 0.0775 µM; in experiment [4], 0.854 µM.

For `C=CCOc1ccc(/C=C2/SC(=S)N(CC(=O)Nc3ccc(S(N)(=O)=O)cc3)C2=O)cc1` [7f, (E)-2-(5-(4-(Allyloxy)benzylidene)-4-oxo-2-thioxothiazolidin-3-yl)-N-(4-sulfamoylphenyl)acetamide], the Ki was determined as 0.0056 µM in experiment [1], 0.0676 µM in experiment [2], 0.32 µM in experiment [3] and 0.688 µM in experiment [4].

For `COc1cc(/C=C2/SC(=S)N(CC(=O)Nc3ccc(S(N)(=O)=O)cc3)C2=O)cc(OC)c1OC` [7g, (E)-2-(4-Oxo-2-thioxo-5-(3,4,5-trimethoxybenzylidene)thiazolidin-3-yl)-N-(4-sulfamoylphenyl)acetamide], the Ki in experiment [1] worked out at 0.0042 µM; in experiment [2], 0.046 µM; in experiment [3] it was 0.0316 µM; in experiment [4] it was 0.173 µM.

`CCOc1cc(/C=C2/SC(=S)N(CC(=O)Nc3ccc(S(N)(=O)=O)cc3)C2=O)ccc1O` [7h, (E)-2-(5-(3-Ethoxy-4-hydroxybenzylidene)-4-oxo-2-thioxothiazolidin-3-yl)-N-(4-sulfamoylphenyl)acetamide]: the Ki in experiment [1] is 0.0056 µM; in experiment [2], 0.0637 µM; in experiment [3] it was 0.0073 µM; in experiment [4], 0.0224 µM.

On to `N#Cc1ccc(/C=C2/SC(=S)N(CC(=O)Nc3ccc(S(N)(=O)=O)cc3)C2=O)cc1` [7i, (E)-2-(5-(4-Cyanobenzylidene)-4-oxo-2-thioxothiazolidin-3-yl)-N-(4-sulfamoylphenyl)acetamide], for which the inhibition constant Ki in experiment [1] stood at 0.0073 µM; in experiment [2] it was 0.009 µM; in experiment [3], 0.0566 µM; in experiment [4], 0.125 µM.

For the compound `COc1cccc(/C=C2/SC(=S)N(CC(=O)Nc3ccc(S(N)(=O)=O)cc3)C2=O)c1` [7j, (E)-2-(5-(3-Methoxybenzylidene)-4-oxo-2-thioxothiazolidin-3-yl)-N-(4-sulfamoylphenyl)acetamide], the Ki was determined as 0.0158 µM in experiment [1], 0.0736 µM in experiment [2], 0.0461 µM in experiment [3] and 0.228 µM in experiment [4].

`COc1ccc(/C=C2/SC(=S)N(CC(=O)Nc3ccc(S(N)(=O)=O)cc3)C2=O)cc1` [7k, (E)-2-(5-(4-Methoxybenzylidene)-4-oxo-2-thioxothiazolidin-3-yl)-N-(4-sulfamoylphenyl)acetamide]: the Ki in experiment [1] came out at 0.0093 µM; in experiment [2], 0.0582 µM; in experiment [3] it was 0.0127 µM; in experiment [4], 0.0786 µM.

`CC(C)c1ccc(/C=C2/SC(=S)N(CC(=O)Nc3ccc(S(N)(=O)=O)cc3)C2=O)cc1` [7l, (E)-2-(5-(4-Isopropylbenzylidene)-4-oxo-2-thioxothiazolidin-3-yl)-N-(4-sulfamoylphenyl)acetamide]: the Ki in experiment [1] worked out at 0.0515 µM; in experiment [2], 0.0416 µM; in experiment [3] it was 0.0686 µM; in experiment [4], 0.43 µM.

For `NS(=O)(=O)c1ccc(NC(=O)CN2C(=O)/C(=C\c3cccc(Oc4ccccc4)c3)SC2=S)cc1` [7m, (E)-2-(4-Oxo-5-(3-phenoxybenzylidene)-2-thioxothiazolidin-3-yl)-N-(4-sulfamoylphenyl)acetamide], the Ki in experiment [1] amounted to 0.0282 µM; in experiment [2], 0.047 µM; in experiment [3] it was 0.0555 µM; in experiment [4], 0.471 µM.

For `COc1ccc(/C=C2/SC(=S)N(CC(=O)Nc3ccc(S(N)(=O)=O)cc3)C2=O)cc1OC` [7n, (E)-2-(5-(3,4-Dimethoxybenzylidene)-4-oxo-2-thioxothiazolidin-3-yl)-N-(4-sulfamoylphenyl)acetamide], the Ki in experiment [1] is 0.0081 µM; in experiment [2] it was 0.0385 µM; in experiment [3] it was 0.0154 µM; in experiment [4], 0.084 µM.

Take `COc1cc(OC)c(OC)cc1/C=C1/SC(=S)N(CC(=O)Nc2ccc(S(N)(=O)=O)cc2)C1=O` [7o, (E)-2-(4-Oxo-2-thioxo-5-(2,4,5-trimethoxybenzylidene)thiazolidin-3-yl)-N-(4-sulfamoylphenyl)acetamide]: the inhibition constant (Ki) worked out at 0.0347 µM in experiment [1], 0.0095 µM in experiment [2], 0.176 µM in experiment [3] and 0.339 µM in experiment [4].

As to `COc1ccc(/C=C2/SC(=S)N(CC(=O)Nc3ccc(S(N)(=O)=O)cc3)C2=O)c(OC)c1` [7p, (E)-2-(5-(2,4-Dimethoxybenzylidene)-4-oxo-2-thioxothiazolidin-3-yl)-N-(4-sulfamoylphenyl)acetamide], the inhibitory constant (Ki) in experiment [1] came to 0.0177 µM; in experiment [2], 0.0098 µM; in experiment [3], 0.008 µM; in experiment [4] it was 0.386 µM.

With `COc1cc(OC)c(/C=C2/SC(=S)N(CC(=O)Nc3ccc(S(N)(=O)=O)cc3)C2=O)c(OC)c1` [7q, (E)-2-(4-Oxo-2-thioxo-5-(2,4,6-trimethoxybenzylidene)thiazolidin-3-yl)-N-(4-sulfamoylphenyl)acetamide], the Ki in experiment [1] was determined as 0.0236 µM; in experiment [2], 0.0263 µM; in experiment [3], 0.0531 µM; in experiment [4], 0.298 µM.

In the case of `NS(=O)(=O)c1ccc(NC(=O)CN2C(=O)/C(=C\c3ccc(F)c(F)c3)SC2=S)cc1` [7r, (E)-2-(5-(3,4-Difluorobenzylidene)-4-oxo-2-thioxothiazolidin-3-yl)-N-(4-sulfamoylphenyl)acetamide], the Ki in experiment [1] came to 0.0135 µM; in experiment [2], 0.0096 µM; in experiment [3], 0.0196 µM; in experiment [4] it was 0.213 µM.

On to `NS(=O)(=O)c1ccc(NC(=O)CN2C(=O)/C(=C\c3cccc([N+](=O)[O-])c3)SC2=S)cc1` [7s, (E)-2-(5-(3-Nitrobenzylidene)-4-oxo-2-thioxothiazolidin-3-yl)-N-(4-sulfamoylphenyl)acetamide], for which the Ki in experiment [1] is 0.0084 µM; in experiment [2] it was 0.009 µM; in experiment [3], 0.0146 µM; in experiment [4], 0.0779 µM.

Consider `COc1cc(/C=C2/SC(=S)N(CC(=O)Nc3ccc(S(N)(=O)=O)cc3)C2=O)cc(OC)c1O` [7t, (E)-2-(5-(4-Hydroxy-3,5-dimethoxybenzylidene)-4-oxo-2-thioxothiazolidin-3-yl)-N-(4-sulfamoylphenyl)acetamide], for which the Ki in experiment [1] came out at 0.0072 µM; in experiment [2], 0.0302 µM; in experiment [3], 0.0096 µM; in experiment [4] it was 0.0775 µM.

Turning to `NS(=O)(=O)c1ccc(NC(=O)CN2C(=O)/C(=C\c3ccc([N+](=O)[O-])cc3)SC2=S)cc1` [7u, (E)-2-(5-(4-Nitrobenzylidene)-4-oxo-2-thioxothiazolidin-3-yl)-N-(4-sulfamoylphenyl)acetamide], the Ki came to 0.0077 µM in experiment [1], 0.0095 µM in experiment [2], 0.0089 µM in experiment [3] and 0.0706 µM in experiment [4].

For `NS(=O)(=O)c1ccc(NC(=O)CN2C(=O)/C(=C3/C(=O)Nc4ccccc43)SC2=S)cc1` [9a, (Z)-2-(4-Oxo-5-(2-oxoindolin-3-ylidene)-2-thioxothiazolidin-3-yl)-N-(4-sulfamoylphenyl)acetamide], the Ki in experiment [1] was 0.0047 µM; in experiment [2], 0.0562 µM; in experiment [3] it was 0.0043 µM; in experiment [4], 0.0416 µM.

Regarding `Cc1ccc2c(c1)/C(=C1/SC(=S)N(CC(=O)Nc3ccc(S(N)(=O)=O)cc3)C1=O)C(=O)N2` [9b, (Z)-2-(5-(5-Methyl-2-oxoindolin-3-ylidene)-4-oxo-2-thioxothiazolidin-3-yl)-N-(4-sulfamoylphenyl)acetamide], the Ki in experiment [1] is 0.0089 µM; in experiment [2], 0.0406 µM; in experiment [3], 0.0055 µM; in experiment [4], 0.0922 µM.

Values taken from article PMC9697818, “Design, Synthesis and Biological Assessment of Rhodanine-Linked Benzenesulfonamide Derivatives as Selective and Potent Human Carbonic Anhydrase Inhibitors” (Molecules, 2022).
